# Measurements: patent publication US20220273638A1 (Belina Pharma AB, priority 2019, published 2022)
# Tests used:
# [1] = for HR, melanoma specific survival adjusted for Breslow thickness / HR, melanoma specific survival adjusted for Breslow thickness and lymph gland metastases: hazard ratio versus non-users; for survivability, comparative results adjusted for Breslow thickness: tables 1 and 2, adjusted for Breslow thickness; for effect on melanoma survival: regardless of age, gender and tumor status
# Method: (§1) Both peri- and post-diagnostic antihistamine use was analyzed, using Cox regression models, as well as different subgroups of patients with regard to age, gender (as a proxy for sex) and tumor status.
# (§2) Our study population included all of the 35,905 individuals with newly diagnosed melanoma from 2005 through 2014, identified using the Swedish National Quality Register for Malignant Skin Melanoma (hereafter referred to as the Melanoma Register), a database comprising all cases of malignant melanoma of the skin in Sweden since 1990. Melanoma in situ is not included in this register, nor melanoma in any other site than the skin. It has a coverage of approximately 98%, and in addition to variables such as age and TNM status, the Melanoma Register also includes information on the histopathology of the tumors, such as Breslow and Clark measures. Use of the six major antihistamines was established using the Swedish Prescribed Drug Register, a record of all dispensed prescribed pharmaceuticals in Sweden since July 1st 2005. To be included in the registry at least 2 weeks of prescription is required. Prescription free antihistamine use, non-dispensed doses, or use of other, less common, types of antihistamines is here considered non-use. Causes of death were obtained from the Swedish Cause of Death Register, a database where all deaths have been recorded since 1952. Data was pseudo-anonymized and the study was approved by the Regional Ethics Board.
# (§3) For the cumulative post-diagnostic antihistamine use analysis, mortality rates for antihistamine users were compared to those of non-users through a Cox regression model allowing for time varying covariates, and survival time was measured in years since diagnosis. This allowed for a single individual to provide data as both a non-user and user of different antihistamines.
# (§4) The impact of the cumulative DDDs was assessed after log transformation of the DDDs plus one3. Cox regression analyses were stratified for patient age at diagnosis, tumor size and node status (T and N status, respectively). A lag-time analysis was performed as described by Tamim et al. and Richardson et al. Statistical analyses were performed using R version XXX6.
# [2] = Nation-wide register-based study, Cox regression: overall mortality/survival by antihistamine use; format: in vivo, human; details: hazard ratio versus non-users
# Method: as §1, §2, §3, §4
# [3] = use 6 months before and after diagnosis; adjusted for Breslow, sentinel lymph node status and education level
# [4] = Risk of developing a second (new primary) melanoma after the first melanoma diagnosis; format: in vivo, human; details: for HR, risk of a new primary melanoma: use longer than 3 years after the first diagnosis, adjusted for age and sex, p<0.05
# [5] = somnolence, tachycardia and headache reported; cited from earlier work
SMILES,"HR, melanoma specific survival adjusted for Breslow thickness [1]","HR, melanoma specific survival adjusted for Breslow thickness and lymph gland metastases [1]","survivability, comparative results adjusted for Breslow thickness [1]","HR, overall survival adjusted for Breslow thickness [2]","HR, overall survival adjusted for Breslow thickness and lymph gland metastases [2]","HR, peridiagnostic use, melanoma mortality [3]",effect on melanoma survival [1],"melanoma specific mortality HR, Men <65 ([1]; Men <65, 95% CI in brackets)","melanoma specific mortality HR, Men >65 ([1]; Men >65, 95% CI in brackets)","melanoma specific mortality HR, Women <65 ([1]; Women <65, 95% CI in brackets)","melanoma specific mortality HR, Women >65 ([1]; Women >65, 95% CI in brackets)","melanoma specific mortality HR, looking at DDD:s ([1]; by defined daily doses (DDDs), 95% CI in brackets)","risk of a new primary melanoma, follow up counted from day 1 [4]","HR, risk of a new primary melanoma [4]",symptoms in connection with overdoses [5]
"O=C(O)COCCN1CCN(C(c2ccccc2)c2ccc(Cl)cc2)CC1 (centres unmarked) [Cetirizine, cetirizine]",1.006,1.014,lack of improval of survivability,1,0.991,0.962,–,–,–,–,–,–,–,–,–
"CN1CCC[C@@H]1CCO[C@](C)(c1ccccc1)c1ccc(Cl)cc1 [Clemastine, clemastine]",1.027,0.993,lack of improval of survivability,1.114,1.101,1.005,consistently negative effect,–,–,–,–,–,–,–,–
"Clc1ccc2c(c1)CCc1cccnc1C2=C1CCNCC1 [Desloratadine, desloratadine]",0.883,0.889,–,0.95,0.953,0.569,consistently beneficial effect,0.69 (0.37-1.29),0.77 (0.45-1.33),0.57 (0.25-1.28),0.80 (0.44-1.45),0.93 (0.87-1.00),No significant difference,0.88,–
"CC(C)(C)c1ccc(C(=O)CCCN2CCC(OC(c3ccccc3)c3ccccc3)CC2)cc1 [Ebastine, ebastine]",1.138,1.03,lack of improval of survivability,1.117,1.076,1.032,–,–,–,–,–,–,–,–,–
"CC(C)(C(=O)O)c1ccc(C(O)CCCN2CCC(C(O)(c3ccccc3)c3ccccc3)CC2)cc1 (centres unmarked) [Fexofenadine, fexofenadine]",0.979,0.935,lack of improval of survivability,1.011,1.013,0.901,–,–,–,–,–,–,–,–,–
"CCOC(=O)N1CCC(=C2c3ccc(Cl)cc3CCc3cccnc32)CC1 [Loratadine, loratadine]",0.858,0.851,–,0.962,0.964,0.534,consistently beneficial effect,–,–,–,–,–,No significant difference,0.88,increase the incidence of anticholinergic symptoms
